Test results as given in publication PMC3921447, “Homologous and heterologous desensitization of guanylyl cyclase-B signaling in GH3 somatolactotropes” (Cell and Tissue Research, 2013).
Read-outs that look alike come from different tables or passages of the source. Ends that are not written are not given here.

How the values were obtained:
GC-B [1] = target: T1, GC-B (Rattus norvegicus, UniProt P16067); assay: Heterologous desensitization of CNP-stimulated (GC-B) cGMP accumulation in GH3 cells; assay type: cell-based; details: then 100 nM CNP 15 min with 1 mM IBMX, n = 3
T1 construct: rapid homologous desensitization of endogenous GC-B receptors in GH3 cells; endogenous in cells; host or cells: GH3 rat somatolactotrope cells
T1 sequence (P16067 17-1047): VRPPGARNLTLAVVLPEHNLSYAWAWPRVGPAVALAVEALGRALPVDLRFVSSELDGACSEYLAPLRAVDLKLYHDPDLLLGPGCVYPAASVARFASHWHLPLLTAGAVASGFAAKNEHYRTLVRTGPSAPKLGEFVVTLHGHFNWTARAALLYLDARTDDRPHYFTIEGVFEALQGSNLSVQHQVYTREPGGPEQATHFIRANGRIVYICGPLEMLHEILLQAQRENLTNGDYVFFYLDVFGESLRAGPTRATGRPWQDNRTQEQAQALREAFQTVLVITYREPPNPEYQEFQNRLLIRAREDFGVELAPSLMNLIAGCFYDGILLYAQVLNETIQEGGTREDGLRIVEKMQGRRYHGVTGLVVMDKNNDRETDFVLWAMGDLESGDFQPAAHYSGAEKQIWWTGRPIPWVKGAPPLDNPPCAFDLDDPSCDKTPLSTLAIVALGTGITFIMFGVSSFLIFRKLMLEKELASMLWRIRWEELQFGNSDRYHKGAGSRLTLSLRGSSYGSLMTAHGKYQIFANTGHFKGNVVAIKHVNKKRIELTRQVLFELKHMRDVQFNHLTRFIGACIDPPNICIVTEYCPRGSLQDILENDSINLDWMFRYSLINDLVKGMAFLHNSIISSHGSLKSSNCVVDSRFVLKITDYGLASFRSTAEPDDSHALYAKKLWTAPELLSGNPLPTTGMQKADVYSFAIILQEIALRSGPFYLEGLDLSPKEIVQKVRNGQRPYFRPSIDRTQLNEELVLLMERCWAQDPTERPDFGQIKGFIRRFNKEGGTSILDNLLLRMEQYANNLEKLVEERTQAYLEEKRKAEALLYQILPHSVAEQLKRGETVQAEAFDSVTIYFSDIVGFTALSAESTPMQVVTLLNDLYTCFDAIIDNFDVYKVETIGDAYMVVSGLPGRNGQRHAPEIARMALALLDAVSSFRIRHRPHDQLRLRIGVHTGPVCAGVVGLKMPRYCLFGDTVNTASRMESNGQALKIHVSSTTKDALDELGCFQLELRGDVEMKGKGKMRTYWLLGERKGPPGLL
Excerpt: (§1) Sphingolipids and calcium have been implicated in regulating natriuretic peptide signaling (Abbey-Hosch et al. [2004]; Abbey and Potter [2002]). Therefore, we examined the role of sphingosine-1-phosphate (S1P) on CNP-stimulated cGMP accumulation. […] However, S1P pre-treatment did cause desensitization of CNP-stimulated cGMP accumulation (by 30 ± 2.7 % compared with control, **P < 0.01).
(§2) Fig. 6 Evidence of sphingosine-mediated but not calcium-mediated, heterologous desensitization of GC-B signaling in GH3 somatolactotrope cells. GH3 cells were pre-treated with PSS containing either (a, b) 10 μM sphingosine-1-phosphate (S1P) or (c, d) 1 μM A23187 (calcium ionophore) for 30 min in the absence of IBMX, before a 15-min stimulation with either 100 nM CNP (a, c) or 100 nM ANP (b, d) in the presence of 1 mM IBMX.
(§3) Subsequent experiments examined the potential regulation of GC-B signaling by other peptide hormones. To determine whether the GC-B receptor underwent heterologous desensitization in GH3 cells, the effect of three known activators of PKC on CNP-stimulated cGMP accumulation was analyzed. […] To establish whether the TRH-induced heterologous desensitization of GC-B signaling was PKC-dependent, GH3 cells were pre-treated with either 0 or 1 μM GF109203X for 30 min to inhibit PKC activity. After this, cells were further pre-treated in the absence or presence of GF109203X and 0 or 100 nM TRH for a further 30 min, prior to stimulation with 0 or 100 nM CNP for a final 15-min stimulation in the presence of 1 mM IBMX.
(§4) Fig. 7 Protein kinase C (PKC)-dependent heterologous desensitization mediates the effects of thyrotrophin-releasing hormone (TRH) on CNP-stimulated GC-B signaling in GH3 somatolactotrope cells. a GH3 cells were pre-treated with PSS containing either 0 or 100 nM TRH, phorbol-12-myristate-13-acetate (PMA), or pituitary adenylate cyclase-activating polypeptide (PACAP) for 30 min in the absence of IBMX, before a 15-min stimulation with either 0 or 100 nM CNP in the presence of 1 mM IBMX.

[2] = system: human airway smooth muscle cells; details: ref Hamad and Knox [1999]; cited from earlier work
Excerpt: (§5) The other major mechanism mediating heterologous desensitization of GC-A and GC-B signaling is the PKC pathway (Potter et al. [2006]). We examined the effects of pre-treatment with TRH, PMA, or PACAP. […] This is in agreement with the predominant expression of vasoactive intestinal peptide activated receptor 2, which is known preferentially to activate cAMP and PKA (Hao et al. [2006]). In contrast, pre-treatments with two known activators of PKC, TRH and PMA do ...

GH3 cells = assay: Basal cGMP accumulation in GH3 cells after pre-treatment; assay type: cell-based, rat; details: 100 nM TRH, PMA or PACAP, 30 min pre-treatment; ns, P > 0.05; Fig. 7a
Excerpt: as §1, §2, §3, §4

GC-B [3] = details: 293 T cells; ref Abbey-Hosch et al. [2005]; cited from earlier work
Excerpt: as §5

GC-B [4] = details: αT3-1 cells, cited from earlier work
Excerpt: Experimental paradigms to investigate receptor desensitization are often performed in one of two ways: time-course studies of a single continuous exposure to ligand or pre-treatment and subsequent re-exposure to the same ligand. Our current studies involved the use of both of these approaches to examine particulate guanylyl cyclase signaling in GH3 cells, similar to previous studies investigating PACAP signaling in gonadotropes (McArdle and Forrest-Owen [1997]). Time-course studies of CNP-stimulated cGMP accumulation in GH3 cells have shown a rapid elevation of cGMP levels within 5 min of CNP ... || The other major mechanism mediating heterologous desensitization of GC-A and GC-B signaling is the PKC pathway (Potter et al. [2006]). We examined the effects of pre-treatment with TRH, PMA, or PACAP. […] This is in agreement with the predominant expression of vasoactive intestinal peptide activated receptor 2, which is known preferentially to activate cAMP and PKA (Hao et al. [2006]). In contrast, pre-treatments with two known activators of PKC, TRH and PMA do ...

growth hormone secretion = details: ref Hartt et al. [1995]; Shimekake et al. [1994]; cited from earlier work
Excerpt: Both humans and mice with mutations in the genes encoding either CNP or its receptor, GC-B, suffer from severe growth disorders (Chusho et al. [2001]) and, in some cases, growth hormone deficiency (Tamura et al. [2004]). Despite significant homology between the three natriuretic peptides and between their receptors, mutations in the genes encoding ANP, BNP, or GC-A fail to phenocopy CNP/GC-B-disrupted mice (Kishimoto et al. [2011]). Our recent observations of GC-B expression in normal fetal pituitary tissue and in a range of human pituitary adenomas (including those from acromegalics) strongly ...

## CN(C)CCCn1cc(C2=C(c3c[nH]c4ccccc34)C(=O)NC2=O)c2ccccc21 [GF109203X]
GC-B [1]; 1 μM GF109203X 30 min, then GF109203X + 100 nM TRH 30 min, ns compared with control, Fig. 7b
  CNP-stimulated cGMP, % of control response to CNP (TRH desensitization reversed to): 76.4 ± 17.2%
[2]
  reversal of PKC-dependent desensitization: capable of reversing the effect, as has been described previously in human airway smooth muscle cells

## CCCCCCCCCCCCCC(=O)O[C@@H]1[C@@H](C)[C@@]2(O)[C@@H](C=C(CO)C[C@]3(O)C(=O)C(C)=C[C@@H]23)[C@@H]2C(C)(C)[C@]12OC(C)=O [PMA, phorbol-12-myristate-13-acetate]
GC-B [1]; 100 nM, 30 min pre-treatment without IBMX, ***P < 0.001, Fig. 7a
  reduction in CNP-stimulated cGMP accumulation compared with control: 51.9 ± 2.8%
GH3 cells
  basal cGMP accumulation: failed to alter basal cGMP accumulation
GC-B [3]
  desensitization of GC-B activity: shown to desensitize GC-B activity in 293 T cells and αT3-1 cells
GC-B [4]; ref Fowkes et al. [2000]
  desensitization of GC-B activity: shown to desensitize GC-B activity in 293 T cells and αT3-1 cells

## Nc1nc2c(ncn2[C@@H]2O[C@@H]3COP(=O)(O)O[C@H]3[C@H]2O)c(=O)[nH]1 [cGMP, cyclic guanosine 3’,5’ monophosphate]
Growth hormone secretion
  growth hormone secretion: act as growth hormone secretogogs

## gonadotrophin-releasing hormone (QHWSYGLRPG; ends and bridges not checked; UniProt P01148 24-33, looked up)
GC-B [4]; ref McArdle et al. [1994], Fowkes et al. [2000]
  heterologous desensitization of GC-B signaling: can cause the heterologous desensitization of GC-B signaling in αT3-1 cells
